Results reported in PubChem BioAssay AID652149 (Molecular Libraries Program, Specialized Chemistry Center, …, 2013).
Calls of active or inactive are those of the source. How the calls were made is not given here.

Biological target: Breakpoint cluster region protein (Homo sapiens) (UniProt P11274)
Test: dose-response of breakpoint cluster region GAP-domain inhibitors, specificity screen for MgcRacGAP inhibitor effort, cell-free enzymatic, Rac1 GTPase, Biomol Green phosphate measurement (AID 652149)
Details: BCR GAP/Rac1 GTPase, Biomol green phosphate absorbance; for inhibition: at 100 µM (top of the series)

Chain of Breakpoint cluster region protein (Homo sapiens) (P11274 whole entry, looked up): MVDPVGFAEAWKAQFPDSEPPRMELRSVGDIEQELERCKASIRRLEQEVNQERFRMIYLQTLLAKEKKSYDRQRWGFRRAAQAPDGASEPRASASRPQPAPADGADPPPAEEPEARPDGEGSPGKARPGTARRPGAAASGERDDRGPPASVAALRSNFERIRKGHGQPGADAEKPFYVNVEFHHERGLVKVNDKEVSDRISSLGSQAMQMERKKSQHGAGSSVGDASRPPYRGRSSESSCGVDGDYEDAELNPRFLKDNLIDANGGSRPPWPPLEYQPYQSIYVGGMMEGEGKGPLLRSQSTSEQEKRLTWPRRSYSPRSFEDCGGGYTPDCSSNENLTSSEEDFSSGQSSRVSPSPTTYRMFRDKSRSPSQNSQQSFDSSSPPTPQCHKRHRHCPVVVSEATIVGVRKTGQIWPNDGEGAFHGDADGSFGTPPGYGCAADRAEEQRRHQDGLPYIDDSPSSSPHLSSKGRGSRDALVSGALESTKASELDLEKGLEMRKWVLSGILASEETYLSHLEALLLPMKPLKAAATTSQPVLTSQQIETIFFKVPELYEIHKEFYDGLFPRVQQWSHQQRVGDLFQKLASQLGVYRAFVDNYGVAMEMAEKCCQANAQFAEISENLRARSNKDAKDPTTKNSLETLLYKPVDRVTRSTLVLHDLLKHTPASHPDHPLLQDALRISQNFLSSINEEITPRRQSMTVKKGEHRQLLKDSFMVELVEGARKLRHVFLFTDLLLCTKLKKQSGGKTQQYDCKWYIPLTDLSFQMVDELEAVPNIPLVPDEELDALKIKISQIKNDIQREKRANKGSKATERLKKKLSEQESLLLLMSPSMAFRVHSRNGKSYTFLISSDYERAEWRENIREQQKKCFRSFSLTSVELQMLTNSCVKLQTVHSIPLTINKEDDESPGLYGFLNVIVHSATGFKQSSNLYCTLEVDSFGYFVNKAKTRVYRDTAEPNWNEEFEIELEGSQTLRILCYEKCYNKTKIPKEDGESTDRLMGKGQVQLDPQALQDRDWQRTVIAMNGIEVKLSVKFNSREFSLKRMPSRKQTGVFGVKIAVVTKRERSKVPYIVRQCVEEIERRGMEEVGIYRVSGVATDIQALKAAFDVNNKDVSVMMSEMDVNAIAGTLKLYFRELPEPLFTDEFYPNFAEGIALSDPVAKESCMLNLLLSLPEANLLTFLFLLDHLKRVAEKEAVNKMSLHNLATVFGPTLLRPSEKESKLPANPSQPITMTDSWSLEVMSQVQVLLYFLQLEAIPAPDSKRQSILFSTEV

Question: For `CN(C)c1nc(=NCc2cccs2)ss1`, which IC50 is on record?
Answer: 18.5 µM

Question: For `O=c1c2sc3ccccc3c2[nH]c(=S)n1CCN1CCOCC1`, which IC50 is on record?
Answer: 5.15 µM

Question: For `O=C1C(Cl)=C(NC(=O)c2ccccc2)C(=O)C(Cl)=C1NC(=O)c1ccccc1`, which IC50 is on record?
Answer: 22.7 µM

Question: Which IC50 does the source give for `O=c1c2cc(F)ccc2sn1-c1ccccc1Cl` here?
Answer: 8.92 µM

Question: Which IC50 does the source give for `O=c1c2ccccc2sn1-c1ccc(Cl)cc1Cl` here?
Answer: 4.22 µM

Question: How did the IC50 turn out when `Nc1ccc(OCc2ccco2)cc1` was run?
Answer: 20.6 µM

Question: For `O=c1c2ccc(F)cc2sn1-c1ccccc1`, which IC50 is on record?
Answer: 9.12 µM

Question: For `O=C(O)c1cc(N2C(=O)C=CC2=O)cc(N2C(=O)C=CC2=O)c1`, which IC50 is on record?
Answer: 24.4 µM

Question: How did the IC50 turn out when `O=C1C=CC(=O)N1c1ccccc1N1C(=O)C=CC1=O` was run?
Answer: 22.1 µM

Question: Which IC50 does the source give for `CN(C)c1ccc(C=c2c3cc(O)ccc3n3c2cc(-c2ccccc2)[n+]3C)cc1` here?
Answer: 10.8 µM

Question: How did the IC50 turn out when `CC(=O)Nc1ccc2sn(-c3ccccc3)c(=O)c2c1` was run?
Answer: 27.4 µM

Question: `CSc1nc(N)c(N=Nc2ccc([As](=O)(O)O)cc2)c(=O)[nH]1` was tested. Which IC50 did it give?
Answer: 5.86 µM

Question: Which IC50 does the source give for `CC1OC(CC(=O)O)CC2=C1C(=O)c1c(O)cccc1C2=O` (stereo unspecified) here?
Answer: 13.2 µM

Question: With `O=C1C(SCCO)=C(SCCO)C(=O)c2ccccc21` as the molecule, how does the IC50 read?
Answer: 25.2 µM

Question: `CCN(CC)c1ccc(C(=C2C=CC(=[N+](CC)CC)C=C2)c2ccc(N(CC)CC)cc2)cc1` was tested. Which IC50 did it give?
Answer: 35.1 µM

Question: Which IC50 does the source give for `Cc1ccc(-n2sc3cc(F)ccc3c2=O)c(C)c1` here?
Answer: 6.71 µM

Question: `O=C(Nc1ccccc1Cl)/C(Cl)=C(\Cl)S(=O)c1ccccc1` (stereo unspecified) was tested. Which IC50 did it give?
Answer: 12.6 µM

Question: How did the IC50 turn out when `COc1ccc(Nc2ccc3ccccc3c2)cc1` was run?
Answer: 5.93 µM

Question: `O=C1C(=Cc2ccco2)CCC1=Cc1ccco1` was tested. Which IC50 did it give?
Answer: 12.7 µM

Question: `O=c1c2ccccc2sn1-c1ccc(F)cc1` was tested. Which IC50 did it give?
Answer: 4.46 µM

Question: How did the IC50 turn out when `Cc1cc(N)c2cc(NC(=O)/C=C/c3ccccc3Cl)ccc2n1` was run?
Answer: 29.1 µM

Question: Which IC50 does the source give for `O=c1c2ccccc2sn1-c1cccc(Cl)c1` here?
Answer: 38.1 µM

Question: Which IC50 does the source give for `O=C1C=CC(=O)c2c(O)c(N3CCN(CCO)CC3)c(Cl)c(O)c21` here?
Answer: 10.2 µM

Question: `Cn1ccc(=Nc2ccc(NC(=O)c3ccc(N=c4ccn(C)c5ccc([N+](=O)[O-])cc45)cc3)cc2)cc1` was tested. Which IC50 did it give?
Answer: 14.2 µM

Question: `O=C(O)C1CSC(c2ccco2)N1` (stereo unspecified) was tested. Which IC50 did it give?
Answer: 10.7 µM

Question: How did the IC50 turn out when `C[n+]1c(-c2ccc(C=NNC(=O)c3ccc(C(=O)NN=Cc4ccc(-c5cn6ccccc6[n+]5C)cc4)cc3)cc2)cn2ccccc21` was run?
Answer: 14.4 µM

Question: How did the IC50 turn out when `CC1=NNC(=O)C1Br` (stereo unspecified) was run?
Answer: 13.6 µM

Question: Which IC50 does the source give for `O=C1C=CC(=O)c2c(O)c(N3CCN(CCOCCO)CC3)c(Br)c(O)c21` here?
Answer: 31.4 µM

Question: For `O=C(O)c1cc(N2N=C(C(F)(F)F)/C(=C/C=C/c3ccco3)C2=O)ccc1Cl`, which inhibition is on record?
Answer: inactive

Question: How did the IC50 turn out when `COC(=O)c1cccc(-n2sc3ccccc3c2=O)c1` was run?
Answer: 14.8 µM

Question: Which IC50 does the source give for `COc1ccc(-n2sc3ccc(F)cc3c2=O)cc1` here?
Answer: 9.82 µM

Question: `CN(C)c1ncc(C2=C(Cl)C(=O)C(N3CCCC3)=C(Cl)C2=O)s1` was tested. Which inhibition did it give?
Answer: inactive

Question: How did the IC50 turn out when `O=c1c2cc(F)ccc2sn1-c1ccccc1` was run?
Answer: 7.49 µM

Question: For `COc1ccc(NC2CCCN(C(=O)C3(C)CCCCC3)C2)cc1` (stereo unspecified), which IC50 is on record?
Answer: 7.34 µM

Question: How did the IC50 turn out when `CN(C)c1ccc(/C=C/c2cc[n+](C)c3ccccc23)cc1` was run?
Answer: 23.3 µM

Question: How did the IC50 turn out when `COc1ccc(/C=N/Nc2cc(C)nc3ccc(OC)cc23)c(OC)c1` was run?
Answer: 18.4 µM

Question: Which IC50 does the source give for `O=C1NC(=S)N(c2ccccc2)C(=O)/C1=C/c1ccco1` here?
Answer: 10.2 µM

Question: With `Cc1ccc(C)c(-n2sc3ccc(F)cc3c2=O)c1` as the molecule, how does the IC50 read?
Answer: 7.31 µM

Question: Which IC50 does the source give for `CCN1CCN(Cc2ccc(NC(=O)c3ccc(C)c(/C=C/c4cnc(Nc5cc(N6CCNCC6)nc(C)n5)cn4)c3)cc2C(F)(F)F)CC1` here?
Answer: 72.7 µM

Question: With `Cc1c(Cl)sn(-c2ccc(Cl)cc2)c1=O` as the molecule, how does the IC50 read?
Answer: 12.9 µM

Question: `Nc1n[nH]c(=S)n1/N=C1/C(=O)Nc2ccccc21` was tested. Which IC50 did it give?
Answer: 14.6 µM

Question: How did the IC50 turn out when `O=C(O)c1cccc(-n2sc3ccccc3c2=O)c1` was run?
Answer: 9.61 µM

Question: Which IC50 does the source give for `O=c1c2ccccc2sn1-c1ccc(Cl)cc1` here?
Answer: 4.44 µM

Question: With `COc1ccc(-n2sc3ccccc3c2=O)cc1` as the molecule, how does the IC50 read?
Answer: 13.3 µM

Question: For `O=c1c2ccccc2sn1-c1ccccc1F`, which IC50 is on record?
Answer: 32.8 µM

Question: `Cc1cc(C)c2c(=N)c3ccccc3n(CCCCCCCCn3c4ccccc4c(=N)c4c(C)cc(C)nc43)c2n1` was tested. Which IC50 did it give?
Answer: 18 µM
